# Laboratory results taken from US9155317B2, “Antifungal compositions” (DSM IP ASSETS B.V., priority 2011, dated 2015).
# How the values were obtained:
# Penicillium italicum = experiment: Treatment of wounded, inoculated mandarins (mould growth); type: in vivo; conditions: 20° C.
# Procedure: Ten fresh, organic mandarins were used per treatment. The peel of each mandarin was wounded once using a cork borer according to the method described by de Lapeyre de Bellaire and Dubois (1987). Subsequently, each wound was inoculated with 10 μl of a Penicillium italicum suspension containing 1×10^4 of spores/ml.
# The treated mandarins were incubated in a closed box in the dark at 20° C. and assessed on mould growth after 16, 19, 22 and 26 days of incubation. […] The expected antifungal activity (E in %) of the combined antifungal composition comprising both active ingredients was calculated according to the Colby equation (Colby, 1967): E=X+Y−[(X·Y)/100] wherein X and Y are the observed antifungal activities (in %) of the individual active ingredients X and Y, respectively. If the observed antifungal activity (O in %) of the combination exceeds the expected antifungal activity (E in %) of the combination and the synergy factor O/E is thus >1.0, the combined application of the active ingredients leads to a synergistic antifungal effect.
# Botrytis cinerea [1] = experiment: Treatment of wounded, inoculated strawberries (mould growth); type: in vivo; conditions: 20° C., 250 ppm natamycin, 500 ppm pyrimethanil or both
# Procedure: Twelve fresh, organic strawberries were used per treatment. Each strawberry was wounded with a 0.5 mm long cut and each wound was inoculated with 10 μl of a Botrytis cinerea suspension containing 1×10^5 of spores/ml. […] The antifungal composition also comprised 1.00% (w/w) methylhydroxyethylcellulose (MHEC), 0.40% (w/w) xanthan gum, 0.20% (w/w) anti-foaming agent, 0.30% (w/w) citric acid, 0.39% (w/w) lactic acid and 0.11% (w/w) potassium sorbate. A composition without natamycin or pyrimethanil was used as control.
# The treated strawberries were incubated for three days in a closed box in the dark at 20° C. and assessed daily on mould growth. The antifungal activity (in %) of the individual active ingredients was determined by calculating the reduction in mould growth observed on the strawberries treated with the antifungal composition in comparison to the mould growth on the strawberries treated with the control composition. The expected antifungal activity (E in %) of the combined antifungal composition comprising both active ingredients was calculated according to the Colby equation (Colby, 1967): E=X+Y−[(X·Y)/100] wherein X and Y are the observed antifungal activities (in %) of the individual active ingredients X and Y, respectively. If the observed antifungal activity (O in %) of the combination exceeds the expected antifungal activity (E in %) of the combination and the synergy factor O/E is thus >1.0, the combined application of the active ingredients leads to a synergistic antifungal effect.
# Fusarium proliferatum [2] = experiment: Treatment of wounded, inoculated bananas (mould growth); type: in vivo; conditions: 20° C.
# Procedure: Four organic, unripe (green) bananas were used per treatment. The peel of each banana was wounded thrice using a cork borer according to the method described by de Lapeyre de Bellaire and Dubois (1987). Subsequently, each wound was inoculated with 15 μl of a Fusarium proliferatum suspension containing 1×10^5 of spores/ml. […] In addition, the antifungal compositions comprised 1.00% (w/w) methylhydroxyethylcellulose (MHEC), 0.40% (w/w) xanthan gum, 0.20% (w/w) anti-foaming agent, 0.30% (w/w) citric acid, 0.39% (w/w) lactic acid and 0.11% (w/w) potassium sorbate. […] The treated, unripe bananas were incubated in a closed box in the dark at 20° C. and a relative air humidity of 95%, which was obtained in the presence of a saturated Na2HPO4 aqueous solution. During the first 20 days of incubation, a ripe (yellow) banana was included in the closed box to elevate the ethylene gas level and thus induce ripening of the treated, unripe bananas.
# The expected antifungal activity (E in %) of the combined antifungal composition comprising both active ingredients was calculated according to the Colby equation (Colby, 1967): E=X+Y−[(X·Y)/100] wherein X and Y are the observed antifungal activities (in %) of the individual active ingredients X and Y, respectively. If the observed antifungal activity (0 in %) of the combination exceeds the expected antifungal activity (E in %) of the combination and the synergy factor O/E is thus >1.0, the combined application of the active ingredients leads to a synergistic antifungal effect.
# The degree of mould growth on the banana wounds was assessed according to the two methods described in Example 3.
# Fusarium proliferatum [3] = experiment: In vitro antifungal activity, 96-well microtiter plates; type: cell-based; conditions: 5 days at 25° C.
# Procedure: (§1) Subsequently, 100 μl of a Botrytis cinerea suspension prepared in PCB medium was used to inoculated each well with 2.5×10^3 spores/ml.
# (§2) After incubation of the microtiter plates for 5 days at 25° C., the in vitro antifungal activity (%) of the individual active ingredients was assessed by calculating the reduction in mould growth observed in the presence of the active ingredient in comparison to the mould growth observed in the absence of the active ingredient. The expected antifungal activity (E in %) of the active ingredient combination was calculated according to the Colby equation (Colby, 1967): E=X+Y−[(X·Y)/100] wherein X and Y are the observed antifungal activities (in %) of the individual active ingredients X and Y, respectively. If the observed antifungal activity (O in %) of the combination exceeds the expected antifungal activity (E in %) of the combination and the resulting synergy factor O/E is thus >1.0, the combined application of the active ingredients leads to a synergistic antifungal effect.
# The experiment was conducted as described in Example 11, except for the fact that the following compositions were tested:
# Furthermore, Fusarium proliferatum was used for inoculation.
# Botrytis cinerea [4] = experiment: as above; type: cell-based; conditions: 5 days at 25° C., alone or combined with natamycin
# Procedure: The following compositions were tested:
# as §1, §2
# [5] = 500 ppm natamycin, 1000 ppm pyrimethanil or both, 22 days
# [6] = 500 ppm natamycin, 1000 ppm pyrimethanil or both, 26 days
# [7] = 250 ppm natamycin, 500 ppm pyrimethanil or both, 23 days
# [8] = 250 ppm natamycin, 500 ppm pyrimethanil or both, 29 days
# [9] = natamycin 1.25 ppm, cyprodinil 10 ppm, pyrimethanil 17.5 ppm
# [10] = natamycin […], cyprodinil 20 ppm, pyrimethanil 30 ppm
# [11] = 250 ppm natamycin, 500 ppm cyprodinil or both, 21 days
# [12] = 500 ppm natamycin, 1000 ppm cyprodinil or both, 27 days
smiles,measurement,setting,value
"C[C@@H]1C/C=C/C=C/C=C/C=C/[C@H](O[C@@H]2O[C@H](C)[C@@H](O)[C@H](N)[C@@H]2O)C[C@@H]2O[C@](O)(C[C@@H](O)C[C@H]3O[C@@H]3/C=C/C(=O)O1)C[C@H](O)[C@H]2C(=O)O [Natamycin, natamycin]",Observed antifungal activity O (%),Penicillium italicum; [5],37%
same,Observed antifungal activity O (%),Penicillium italicum; [6],30%
same,Observed antifungal activity O (%),Botrytis cinerea [1]; 1 day,25%
same,Observed antifungal activity O (%),Botrytis cinerea [1]; 2 days,31%
same,Observed antifungal activity O (%),Botrytis cinerea [1]; 3 days,24%
same,Observed antifungal activity O (%),Fusarium proliferatum [2]; [7],19%
same,Observed antifungal activity O (%),Fusarium proliferatum [2]; [8],9%
"Cc1cc(C)nc(Nc2ccccc2)n1 [Pyrimethanil, pyrimethanil]",Observed antifungal activity O (%),"Penicillium italicum; 250 ppm natamycin, 500 ppm pyrimethanil or both, 19 days",84%
same,Observed antifungal activity O (%),"Penicillium italicum; 250 ppm natamycin, 500 ppm pyrimethanil or both, 22 days",74%
same,Observed antifungal activity O (%),"Penicillium italicum; 250 ppm natamycin, 500 ppm pyrimethanil or both, 26 days",65%
same,Observed antifungal activity O (%),Penicillium italicum; [5],82%
same,Observed antifungal activity O (%),Penicillium italicum; [6],79%
same,Observed antifungal activity O (%),"Fusarium proliferatum [3]; natamycin 2.5 ppm, pyrimethanil 275 ppm or both",0%
same,Observed antifungal activity O (%),Botrytis cinerea [1]; 1 day,0%
same,Observed antifungal activity O (%),Botrytis cinerea [1]; 2 days,0%
same,Observed antifungal activity O (%),Botrytis cinerea [1]; 3 days,0%
same,Observed antifungal activity O (%),Botrytis cinerea [4]; [9],50%
same,Observed antifungal activity O (%),Botrytis cinerea [4]; [10],50%
same,Observed antifungal activity O (%),Fusarium proliferatum [2]; [7],0%
same,Observed antifungal activity O (%),Fusarium proliferatum [2]; [8],0%
same,Observed antifungal activity O (%),"Fusarium proliferatum [2]; 250 ppm natamycin, 500 ppm pyrimethanil or both, 32 days",0%
same,Observed antifungal activity O (%),"Fusarium proliferatum [2]; 250 ppm natamycin, 500 ppm pyrimethanil or both, 34 days",0%
"Cc1cc(C2CC2)nc(Nc2ccccc2)n1 [Cyprodinil, cyprodinil]",Observed antifungal activity O (%),"Penicillium italicum; 250 ppm natamycin, 500 ppm cyprodinil or both, 16 days",60%
same,Observed antifungal activity O (%),"Penicillium italicum; 250 ppm natamycin, 500 ppm cyprodinil or both, 19 days",38%
same,Observed antifungal activity O (%),"Penicillium italicum; 250 ppm natamycin, 500 ppm cyprodinil or both, 22 days",20%
same,Observed antifungal activity O (%),"Penicillium italicum; 250 ppm natamycin, 500 ppm cyprodinil or both, 26 days",13%
same,Observed antifungal activity O (%),"Fusarium proliferatum [3]; natamycin 1.25 ppm, cyprodinil 125 ppm or both",0%
same,Observed antifungal activity O (%),Botrytis cinerea [4]; [9],0%
same,Observed antifungal activity O (%),Botrytis cinerea [4]; [10],0%
same,Observed antifungal activity O (%),"Fusarium proliferatum [2]; 50 ppm natamycin, 250 ppm cyprodinil or both, 23 days",0%
same,Observed antifungal activity O (%),"Fusarium proliferatum [2]; 50 ppm natamycin, 250 ppm cyprodinil or both, 29 days",0%
same,Observed antifungal activity O (%),"Fusarium proliferatum [2]; 50 ppm natamycin, 250 ppm cyprodinil or both, 32 days",0%
same,Observed antifungal activity O (%),"Fusarium proliferatum [2]; 50 ppm natamycin, 250 ppm cyprodinil or both, 36 days",0%
same,Number of moulded wounds/total number of 12 wounds,"Fusarium proliferatum [2]; 250 ppm natamycin, 500 ppm cyprodinil or both, 18 days",12/12
same,Number of moulded wounds/total number of 12 wounds,"Fusarium proliferatum [2]; 250 ppm natamycin, 500 ppm cyprodinil or both, 18 days, listed as cyprodinil",12
same,Number of moulded wounds/total number of 12 wounds,Fusarium proliferatum [2]; [11],12/12
same,Observed antifungal activity O (%),Fusarium proliferatum [2]; [11],35%
same,Number of moulded wounds/total number of 12 wounds,"Fusarium proliferatum [2]; 250 ppm natamycin, 500 ppm cyprodinil or both, 21 days, listed as cyprodinil",12
same,Observed antifungal activity O (%),"Fusarium proliferatum [2]; 250 ppm natamycin, 500 ppm cyprodinil or both, 32 days",3%
same,Observed antifungal activity O (%),"Fusarium proliferatum [2]; 250 ppm natamycin, 500 ppm cyprodinil or both, 34 days",0%
same,Number of moulded wounds/total number of 12 wounds,"Fusarium proliferatum [2]; 500 ppm natamycin, 1000 ppm cyprodinil or both, 23 days",12/12
same,Number of moulded wounds/total number of 12 wounds,"Fusarium proliferatum [2]; 500 ppm natamycin, 1000 ppm cyprodinil or both, 23 days, listed as cyprodinil",12
same,Number of moulded wounds/total number of 12 wounds,Fusarium proliferatum [2]; [12],12/12
same,Observed antifungal activity O (%),Fusarium proliferatum [2]; [12],18%
same,Number of moulded wounds/total number of 12 wounds,"Fusarium proliferatum [2]; 500 ppm natamycin, 1000 ppm cyprodinil or both, 27 days, listed as cyprodinil",12
same,Observed antifungal activity O (%),"Fusarium proliferatum [2]; 500 ppm natamycin, 1000 ppm cyprodinil or both, 39 days",0%
